Experiment: Accelerated preservation test of dustable powder (Cyazofamid content by HPLC)
Assay type: physicochemical
Protocol: The dustable powder obtained by Example 1 or Comparative Example was subjected to an accelerated preservation at 54° C. for 14 days, and then the Cyazofamid content in the dustable powder was measured by an HPLC (high performance liquid chromatography) and degradation ratio (%) of Cyazofamid was calculated by the following formula. In this connection, the Cyazofamid content in the dustable powder preserved at 4° C. was measured at the time of measuring the Cyazofamid content in the dustable powder after accelerated preservation, and the value was used as the initial stage content. Degradation ratio (%)=(initial stage content−content after accelerated preservation)/initial stage content×100

Substance	Degradation Ratio (%) of Cyazofamid
Epoxidized Soybean Oil	5%
Polyoxyethylene Castor Oil	7%
